Consider 27 compounds from US20250019385A1, “SPIROCYCLIC ANNULATED 2-AMINO-3-CYANO THIOPHENES AND DERIVATIVES FOR THE TREATMENT OF CANCER” (Boehringer Ingelheim International GmbH, priority 2023, published 2025).

Common to all, as to format: cell-based
One assay has as its system AsPC-1 cells. Put plainly: AsPC-1 CTG proliferation assay (120 h) (pancreatic cancer, G12D). Conditions: Homo sapiens, ASPC1. The protocol:
(§1) AsPC-1 cells (ATCC CRL-1682) are dispensed into black 384-well plates, flat and clear bottom (Greiner, PNr. 781091) at a density of 500 cells per well in 60 μl RPMI ATCC-Formulation (PAN P04-18047)+10% FCS (fetal calf serum, HyClone, SH30084.03). Cells are incubated overnight at 37° C. in a humidified tissue culture incubator at 5% CO2. Compounds (10 mM stock in DMSO) are added at logarithmic dose series using the ECHO acoustic liquid handler system (Beckman Coulter), normalizing for added DMSO and including DMSO controls. All compound treatments are performed in technical duplicates. For the TO time point measurement, untreated cells are analyzed at the time of compound addition. Plates are incubated for 120 h, and cell viability is measured using CellTiter-Glo luminescent cell viability reagent (Promega product code G7570). Viability (stated as percent of control) is defined as relative luminescence units RLU of each well divided by the RLU of cells in DMSO controls. IC50 values are determined from viability measurements by non-linear regression using a four-parameter model.
(§2) IC50 values of representative compounds according to the invention measured with these assays in the indicated cell lines are presented in Table 46.

For another assay, the system named is Ba/F3 cells KRAS G12D. Put plainly: Ba/F3 proliferation assay (KRAS G12D). Conditions: Mus musculus, BaF3, 72 h, AlamarBlue viability. The protocol:
Ba/F3 cells are ordered from DSMZ (ACC300, Lot17) and grown in RPMI-1640 (ATCC 30-2001)+10% FCS+10 ng/mL IL-3 at 37° C. in 5% […] atmosphere. Plasmids containing KRASG12 mutants (i.e. […], G12C, G12V) are obtained from GeneScript. To generate KRASG12-dependent Ba/F3 models, Ba/F3 cells are transduced with retroviruses containing vectors that harbor KRASG12 isoforms. Platinum-E cells (Cell Biolabs) are used for retrovirus packaging. Retrovirus is added to Ba/F3 cells. To ensure infection, 4 μg/mL polybrene is added and cells are spinfected. Infection efficiency is confirmed by measuring GFP-positive cells using a cell analyzer. Cells with an infection efficiency of 10% to 20% are further cultivated and puromycin selection with 1 μg/mL is initiated. As a control, parental Ba/F3 cells are used to show selection status. Selection is considered successful when parental Ba/F3 cells cultures died. To evaluate the transforming potential of KRASG12 mutations, the growth medium is no longer supplemented with IL-3. Ba/F3 cells harboring the empty vector are used as a control. Approximately ten days before conducting the experiments, puromycin is left out.
For proliferation assays, Ba/F3 cells are seeded into 384-well plates at 1.5×1 (M cells/60 μL in growth media (RPMI-1640+10% FCS). Compounds (10 mM stock in DMSO) are added at logarithmic dose series using the ECHO acoustic liquid handler system (Beckman Coulter), normalizing for added DMSO and including DMSO controls. All compound treatments are performed in technical duplicates. For the TO time point measurement, untreated cells are analyzed at the time of compound addition. Treated cells are incubated for 72 h at 37° C. with 5% CO2 and cell viability is measured in the PerkinElmer Envision Multimode Reader using AlamarBlue™ (ThermoFisher) viability stain. Viability (stated as percent of control) is defined as relative fluorescence units RFU of each well divided by the RFU of cells in DMSO controls. IC50 values are determined from viability measurements by non-linear regression using a four-parameter model.
(In general: Alamar Blue is a resazurin reagent that responds to reducing activity.)

The subject of the next assay is LOVO cells. Nature of the assay: LOVO CTG proliferation assay (120 h) (CRC, G13D). As to conditions: Homo sapiens. The method, then: as §1, with “LOVO” for “AsPC-1”, “No. CCL-229)” for “CRL-1682)”, “1000” for “500”, “DMEM (Sigma D6429)+10%” for “RPMI ATCC-Formulation (PAN P04-18047)+10%”
as §2

Molecules are shown by their SMILES.

Take `COCCn1c(=O)n([C@@H]2CCOC2)c2nc(-c3onc4c3CCC[C@@]43CCCc4sc(N)c(C#N)c43)nc(O[C@@H](C)[C@@H]3CCCN3C)c21` [I-1]: the IC50 (in general, the concentration that inhibits the measured activity by half) worked out at 705 nM with AsPC-1 cells, 36 nM in the assay on Ba/F3 cells KRAS G12D and 5 nM in the assay on LOVO cells.

As for `CO[C@H]1C[C@@H]([C@H](C)Oc2nc(-c3onc4c3CCC[C@@]43CCCc4sc(N)c(C#N)c43)nc3c2n(C)c(=O)n3[C@@H]2CCOC2)N(C)C1` [I-2], the IC50 came to 1970 nM in the assay on AsPC-1 cells, 90 nM with Ba/F3 cells KRAS G12D and 3 nM with LOVO cells.

`CO[C@@H]1C[C@@H]([C@H](C)Oc2nc(-c3onc4c3CCC[C@@]43CCCc4sc(N)c(C#N)c43)nc3c2n(C)c(=O)n3[C@@H]2CCOC2)N(C)C1` [I-3]: the figures for the IC50 in the assay on AsPC-1 cells, with Ba/F3 cells KRAS G12D and in the assay on LOVO cells were 438 nM, 14 nM and 15 nM, respectively.

As for `C[C@H](Oc1nc(-c2onc3c2CCC[C@@]32CCCc3sc(N)c(C#N)c32)nc2c1n(C)c(=O)n2[C@@H]1CCOC1)[C@@H]1[C@H](F)CCN1C` [I-4], the IC50 was found to be 2740 nM with AsPC-1 cells, 145 nM in the assay with Ba/F3 cells KRAS G12D and 181 nM in the assay on LOVO cells.

For `C[C@H](Oc1nc(-c2onc3c2CCC[C@@]32CCCc3sc(N)c(C#N)c32)nc2c1n(C)c(=O)n2[C@@H]1CCOC1)[C@@H]1[C@@H](F)CCN1C` [I-5], the half-maximal inhibitory concentration (IC50) in the assay on AsPC-1 cells is 224 nM; in the assay on Ba/F3 cells KRAS G12D, 68 nM; in the assay on LOVO cells it was 29 nM.

Take `CO[C@H]1CCN(C)[C@@H]1[C@H](C)Oc1nc(-c2onc3c2CCC[C@@]32CCCc3sc(N)c(C#N)c32)nc2c1n(C)c(=O)n2[C@@H]1CCCOC1` [I-6]: the IC50 with AsPC-1 cells stood at 607 nM; in the assay on Ba/F3 cells KRAS G12D it was 9 nM; in the assay on LOVO cells it was 3 nM.

With `COCCn1c(=O)n(C)c2c(O[C@@H](C)[C@@H]3CCCN3C)nc(-c3onc4c3CCC[C@@]43CCCc4sc(N)c(C#N)c43)nc21` [I-7], the IC50 in the assay on AsPC-1 cells was found to be 4830 nM; with Ba/F3 cells KRAS G12D, 204 nM; in the assay on LOVO cells it was 563 nM.

As for `C[C@H](Oc1nc(-c2onc3c2CCC[C@@]32CCCc3sc(N)c(C#N)c32)nc2c1[nH]c(=O)n2[C@@H]1CCOC1)[C@@H]1CCCN1C` [I-8], the IC50 turned out to be 1260 nM in the assay on AsPC-1 cells, 107 nM in the assay on Ba/F3 cells KRAS G12D and 258 nM in the assay on LOVO cells.

For `C[C@H](Oc1nc(-c2onc3c2CCC[C@@]32CCCc3sc(N)c(C#N)c32)nc2c1n(C)c(=O)n2[C@H]1CCOC1)[C@@H]1CCCN1C` [I-9], the values for the 50% inhibitory concentration (IC50) in the assay with AsPC-1 cells, with Ba/F3 cells KRAS G12D and in the assay with LOVO cells were 751 nM, 46 nM and 90 nM, respectively.

Turning to `C[C@H](Oc1nc(-c2onc3c2CCC[C@@]32CCCc3sc(N)c(C#N)c32)nc2c1n(C)c(=O)n2C1CCOCC1)[C@@H]1CCCN1C` [I-10], the IC50 with AsPC-1 cells is 3470 nM; in the assay with Ba/F3 cells KRAS G12D, 118 nM; with LOVO cells it was 53 nM.

With `C[C@H](Oc1nc(-c2onc3c2CCC[C@@]32CCCc3sc(N)c(C#N)c32)nc2c1n(C)c(=O)n2[C@H]1CCCOC1)[C@@H]1CCCN1C` [I-11], the IC50 in the assay on AsPC-1 cells turned out to be 4480 nM; with Ba/F3 cells KRAS G12D it was 344 nM; in the assay on LOVO cells it was 541 nM.

Regarding `C[C@H](Oc1nc(-c2onc3c2CCC[C@@]32CCCc3sc(N)c(C#N)c32)nc2c1n(C)c(=O)n2[C@@H]1CCCOC1)[C@@H]1CCCN1C` [I-12], the IC50 with AsPC-1 cells came out at 326 nM; in the assay on Ba/F3 cells KRAS G12D, 12 nM; in the assay with LOVO cells it was 19 nM.

With `C[C@H](Oc1nc(-c2onc3c2CCC[C@@]32CCCc3sc(N)c(C#N)c32)nc2c1[nH]c(=O)n2[C@@H]1CCCOC1)[C@@H]1CCCN1C` [I-13], the half-maximal inhibitory concentration (IC50) in the assay with AsPC-1 cells is 2370 nM; in the assay on Ba/F3 cells KRAS G12D, 141 nM; in the assay on LOVO cells, 39 nM.

As to `CO[C@@H]1C[C@@H]([C@H](C)Oc2nc(-c3onc4c3CCC[C@@]43CCCc4sc(N)c(C#N)c43)nc3c2n(C)c(=O)n3[C@@H]2CCCOC2)N(C)C1` [I-14], the IC50 was 767 nM with AsPC-1 cells, 10 nM with Ba/F3 cells KRAS G12D and 6 nM with LOVO cells.

Take `C[C@H](Oc1nc(-c2onc3c2CCC[C@@]32CCCc3sc(N)c(C#N)c32)nc2c1n(C)c(=O)n2C12COC(C1)C2)[C@@H]1CCCN1C` [I-15]: the IC50 in the assay on AsPC-1 cells turned out to be 1630 nM; in the assay on Ba/F3 cells KRAS G12D, 51 nM; in the assay on LOVO cells, 7 nM.

As to `CO[C@H]1C[C@H](n2c(=O)n(C)c3c(O[C@@H](C)[C@@H]4CCCN4C)nc(-c4onc5c4CCC[C@@]54CCCc5sc(N)c(C#N)c54)nc32)C1` [I-16], the IC50 in the assay on AsPC-1 cells came to 3990 nM; in the assay on Ba/F3 cells KRAS G12D, 488 nM; in the assay with LOVO cells, 404 nM.

Turning to `C[C@H](Oc1nc(-c2onc3c2CCC[C@@]32CCCc3sc(N)c(C#N)c32)nc2c1n(C)c(=O)n2[C@H]1CC2CCC1O2)[C@@H]1CCCN1C` (stereo partly shown) [I-17], the values for the half-inhibitory concentration (IC50) in the assay on AsPC-1 cells, with Ba/F3 cells KRAS G12D and in the assay on LOVO cells were 1480 nM, 47 nM and 14 nM, respectively.

Turning to `C[C@H](Oc1nc(-c2onc3c2CCC[C@@]32CCCc3sc(N)c(C#N)c32)nc2c1n(C)c(=O)n2[C@@H]1CC2CCC1O2)[C@@H]1CCCN1C` (stereo partly shown) [I-18], the IC50 in the assay with AsPC-1 cells was determined as 4320 nM; in the assay with Ba/F3 cells KRAS G12D, 182 nM; in the assay with LOVO cells, 49 nM.

For `C[C@H](Oc1nc(-c2onc3c2CCC[C@@]32CCCc3sc(N)c(C#N)c32)nc2c1n(C)c(=O)n2[C@H]1CCC[C@@H]1O)[C@@H]1CCCN1C` [I-19], the IC50 amounted to 2990 nM in the assay with AsPC-1 cells, 470 nM in the assay on Ba/F3 cells KRAS G12D and 60 nM in the assay on LOVO cells.

Consider `C[C@H](Oc1nc(-c2onc3c2CCC[C@@]32CCCc3sc(N)c(C#N)c32)nc2c1n(C)c(=O)n2[C@@H]1CCOC1)[C@@H]1CCCN1C` [I-20], for which the IC50 in the assay on AsPC-1 cells worked out at 246 nM; in the assay with Ba/F3 cells KRAS G12D, 9 nM; in the assay on LOVO cells it was 6 nM.

Take `CCn1c(=O)n([C@@H]2CCOC2)c2nc(-c3onc4c3CCC[C@@]43CCCc4sc(N)c(C#N)c43)nc(O[C@@H](C)[C@@H]3CCCN3C)c21` [I-21]: the values for the IC50 in the assay with AsPC-1 cells, with Ba/F3 cells KRAS G12D and in the assay on LOVO cells were 327 nM, 21 nM and 9 nM, respectively.

With `C[C@H](Oc1nc(-c2onc3c2CCC[C@@]32CCCc3sc(N)c(C#N)c32)nc2c1n(C)c(=O)n2[C@@H]1CCOC1)[C@@H]1C[C@@H](F)CN1C` [I-22], the values for the IC50 in the assay with AsPC-1 cells, in the assay on Ba/F3 cells KRAS G12D and in the assay on LOVO cells were 1090 nM, 22 nM and 43 nM, respectively.

Take `CO[C@H]1CCN(C)[C@@H]1[C@H](C)Oc1nc(-c2onc3c2CCC[C@@]32CCCc3sc(N)c(C#N)c32)nc2c1n(C)c(=O)n2[C@@H]1CCOC1` [I-23]: the values for the half-maximal inhibitory concentration (IC50) in the assay on AsPC-1 cells, with Ba/F3 cells KRAS G12D and with LOVO cells were 540 nM, 10 nM and 10 nM, respectively.

As for `C[C@H](Oc1nc(-c2onc3c2CCC[C@@]32CCCc3sc(N)c(C#N)c32)nc2c1n(C)c(=O)n2[C@H]1CO[C@@H](C)C1)[C@@H]1CCCN1C` [I-47], the concentration for half-maximal inhibition (IC50) in the assay on Ba/F3 cells KRAS G12D is 1 nM.

The compound `C[C@H](Oc1nc(-c2onc3c2CCC[C@@]32CCCc3sc(N)c(C#N)c32)nc2c1n(C)c(=O)n2[C@H]1CO[C@@H](C)C1)[C@@H]1CC[C@H](C)N1C` [I-50] displayed an IC50 with Ba/F3 cells KRAS G12D of 4 nM.

For `CO[C@H]1CCN(C)[C@@H]1[C@H](C)Oc1nc(-c2onc3c2CCC[C@@]32CCCc3sc(N)c(C#N)c32)nc2c1n(C)c(=O)n2[C@H]1COC[C@@H](C)C1` [I-51], in the assay with Ba/F3 cells KRAS G12D, the IC50 came out at 26 nM.

In turn, `CO[C@@H]1C[C@@H]([C@H](C)Oc2nc(-c3onc4c3CCC[C@@]43CCCc4sc(N)c(C#N)c43)nc3c2n(C)c(=O)n3[C@H]2COC[C@@H](C)C2)N(C)C1` [I-52] displayed an IC50 in the assay with Ba/F3 cells KRAS G12D of 28 nM.
